Here are results for 23 compounds from patent US20140274688A1, “MOLECULES HAVING CERTAIN PESTICIDAL UTILITIES, AND INTERMEDIATES, COMPOSITIONS, AND PROCESSES RELATED THERETO” (DOW AGROSCIENCES LLC, priority 2013, published 2014).

Data set [1] deals with Beet Armyworm (Spodoptera exigua) ("BAW"). In words: Bioassay on Beet Armyworm (BAW), 128-well diet tray assay, percent mortality. It counts as in vivo. The conditions noted are these: for pest or weed control at 50 µg/cm2: Spodoptera exigua, read-out: BAW; for BAW rating (percent mortality class): Beet Armyworm, 128-well diet tray assay. The method in brief: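 Larvae in covered diet trays held at 25 °C, 14:10 light-dark, for five to seven days. Percent mortality scored per well and averaged over eight wells per treatment.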

Data set [2] relates to Cabbage Looper (Trichoplusia ni) ("CL"). In words: Bioassay on Cabbage Looper (CL), 128-well diet tray assay, percent mortality. The data set is classed as in vivo. The conditions noted are these: for pest or weed control at 50 µg/cm2: Trichoplusia ni, read-out: CL; for CL rating (percent mortality class): Cabbage Looper, 128-well diet tray assay. The essentials:
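Larvae held in covered diet trays at 25 °C, 14:10 light-dark, for five to seven days. Percent mortality scored per well and averaged over eight wells.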

Each structure is given as a SMILES string.

`CCc1ccccc1N1C(=O)CS/C1=N\C(=O)NCCCc1ccc(-c2ncn(-c3ccc(OC(F)(F)F)cc3)n2)cc1` [P93, (Z)-1-(3-(2-ethylphenyl)-4-oxothiazolidin-2-ylidene)-3-(3-(4-(1-(4-(trifluoromethoxy)phenyl)-1H-1,2,4-triazol-3-yl)phenyl)propyl)urea]: the pest or weed control at 50 µg/cm2 in data set [1] and in data set [2] was 50 to 100% in each case.
Consider `Cc1ccc(N2C(=O)CS/C2=N\C(=O)NCCc2cccc(-c3ncn(-c4ccc(OC(F)(F)F)cc4)n3)c2)c(C(C)C)c1` [P84, (Z)-1-(3-(2-isopropyl-4-methylphenyl)-4-oxothiazolidin-2-ylidene)-3-(3-(1-(4-(trifluoromethoxy)phenyl)-1H-1,2,4-triazol-3-yl)phenethyl)urea], for which the pest or weed control at 50 µg/cm2 in data set [1] and in data set [2] was 50 to 100% in each case.
On to `CCCc1ccc(C)cc1N1C(=O)CS/C1=N\C(=O)NCc1ccc(-c2ncn(-c3ccc(OC(F)(F)F)cc3)n2)cc1` [P8, (Z)-1-(3-(5-methyl-2-propylphenyl)-4-oxothiazolidin-2-ylidene)-3-(4-(1-(4-(trifluoromethoxy)phenyl)-1H-1,2,4-triazol-3-yl)benzyl)urea], for which the pest or weed control at 50 µg/cm2 in data set [1] and in data set [2] was 50 to 100% throughout.
Consider `CC(C)c1ccccc1NC(=S)NC(=O)N/C=C/c1ccc(-c2ncn(-c3ccc(OC(F)(F)F)cc3)n2)cc1` [F11, N-[2-(propan-2-yl)phenyl]-N′-[(E)-2-(4-{1-[4-(trifluoromethoxy)phenyl]-1H-1,2,4-triazol-3-yl}phenyl)ethenyl]dicarbonimidothioic diamide], for which, in data set [1], the “BAW rating (percent mortality class)” value is reported as “A (50-100)”. Further, the “CL rating (percent mortality class)” value in data set [2] is “A (50-100)”.
With `Cc1cccc(C)c1N1C(=O)CS/C1=N\C(=O)NC1CC1c1ccc(-c2ncn(-c3ccc(OC(F)(F)F)cc3)n2)cc1` (stereo not shown) [F32, (Z)-1-(3-(2,6-dimethylphenyl)-4-oxothiazolidin-2-ylidene)-3-(2-(4-(1-(4-(trifluoromethoxy)phenyl)-1H-1,2,4-triazol-3-yl)phenyl)cyclopropyl)urea], the “BAW rating (percent mortality class)” value in data set [1] was “A (50-100)”. Besides, in data set [2], the “CL rating (percent mortality class)” value was “A (50-100)”.
In the case of `CC(C)c1cc(F)ccc1N1C(=O)CS/C1=N\C(=O)NCCCCc1ccc(-c2ncn(-c3ccc(OC(F)(F)F)cc3)n2)cc1` [P155, (Z)-1-(3-(4-fluoro-2-isopropylphenyl)-4-oxothiazolidin-2-ylidene)-3-(4-(4-(1-(4-(trifluoromethoxy)phenyl)-1H-1,2,4-triazol-3-yl)phenyl)butyl)urea], the pest or weed control at 50 µg/cm2 in data set [1] and in data set [2] was 50 to 100% throughout.
Turning to `CC(C)c1ccccc1N1C(=O)CS/C1=N\C(=O)NCCCCc1cccc(-c2ncn(-c3ccc(OC(F)(F)F)cc3)n2)c1` [P172, (Z)-1-(3-(2-isopropylphenyl)-4-oxothiazolidin-2-ylidene)-3-(4-(3-(1-(4-(trifluoromethoxy)phenyl)-1H-1,2,4-triazol-3-yl)phenyl)butyl)urea], the pest or weed control at 50 µg/cm2 in data set [1] and in data set [2] was 50 to 100% each time.
With `Cc1ccc(N2C(=O)CS/C2=N\C(=O)NCCCc2ccc(-c3ncn(-c4ccc(OC(F)(F)F)cc4)n3)cc2)c(C(C)C)c1` [P102, (Z)-1-(3-(2-isopropyl-4-methylphenyl)-4-oxothiazolidin-2-ylidene)-3-(3-(4-(1-(4-(trifluoromethoxy)phenyl)-1H-1,2,4-triazol-3-yl)phenyl)propyl)urea], the pest or weed control at 50 µg/cm2 in data set [1] and in data set [2] was 50 to 100% each time.
Turning to `CCc1ccccc1N1C(=O)CS/C1=N\C(=O)NCCc1cccc(-c2ncn(-c3ccc(OC(F)(F)F)cc3)n2)c1` [P75, (Z)-1-(3-(2-ethylphenyl)-4-oxothiazolidin-2-ylidene)-3-(3-(1-(4-(trifluoromethoxy)phenyl)-1H-1,2,4-triazol-3-yl)phenethyl)urea], the pest or weed control at 50 µg/cm2 in data set [1] and in data set [2] was 50 to 100% in each case.
Regarding `CCCc1ccc(C)cc1N1C(=O)CS/C1=N\C(=O)NCCCCc1ccc(-c2ncn(-c3ccc(OC(F)(F)F)cc3)n2)cc1` [P151, (Z)-1-(3-(5-methyl-2-propylphenyl)-4-oxothiazolidin-2-ylidene)-3-(4-(4-(1-(4-(trifluoromethoxy)phenyl)-1H-1,2,4-triazol-3-yl)phenyl)butyl)urea], the pest or weed control at 50 µg/cm2 in data set [1] and in data set [2] was 50 to 100% each time.
As for `Cc1ccc(C(C)C)c(NC(=S)NC(=O)NCc2ccc(-c3ncn(-c4ccc(OC(F)(F)C(F)(F)F)cc4)n3)cc2)c1` [F16, N-[5-methyl-2-(propan-2-yl)phenyl]-N′-(4-{1-[4-(pentafluoroethoxy)phenyl]-1H-1,2,4-triazol-3-yl}benzyl)dicarbonimidothioic diamide], in data set [1], the “BAW rating (percent mortality class)” value is given as “A (50-100)”. In data set [2], the “CL rating (percent mortality class)” value is on record as “A (50-100)”.
Take `CC(C)c1ccccc1N1C(=O)CS/C1=N\C(=O)NCCCc1ccc(-c2ncn(-c3ccc(OC(F)(F)F)cc3)n2)cc1` [P94, (Z)-1-(3-(2-isopropylphenyl)-4-oxothiazolidin-2-ylidene)-3-(3-(4-(1-(4-(trifluoromethoxy)phenyl)-1H-1,2,4-triazol-3-yl)phenyl)propyl)urea]: the pest or weed control at 50 µg/cm2 in data set [1] and in data set [2] was 50 to 100% throughout.
For `Cc1ccc(N2C(=O)CS/C2=N\C(=O)NCc2ccc(-c3ncn(-c4ccc(C(F)(F)F)cc4)n3)cc2)c(C(C)C)c1` [P15, (Z)-1-(3-(2-isopropyl-4-methylphenyl)-4-oxothiazolidin-2-ylidene)-3-(4-(1-(4-(trifluoromethyl)phenyl)-1H-1,2,4-triazol-3-yl)benzyl)urea], the pest or weed control at 50 µg/cm2 in data set [1] and in data set [2] was 50 to 100% throughout.
For the compound `Cc1ccc(C(C)C)c(N2C(=O)CS/C2=N\C(=O)NC(C)C(C)c2ccc(-c3ncn(-c4ccc(OC(F)(F)F)cc4)n3)cc2)c1` (stereo not shown) [P66, (Z)-1-(3-(2-isopropyl-5-methylphenyl)-4-oxothiazolidin-2-ylidene)-3-(3-(4-(1-(4-(trifluoromethoxy)phenyl)-1H-1,2,4-triazol-3-yl)phenyl)butan-2-yl)urea], the pest or weed control at 50 µg/cm2 in data set [1] and in data set [2] was 50 to 100% in each case.
For `CCc1cccc(C)c1N1C(=O)CS/C1=N\C(=O)NC1CC1c1ccc(-c2ncn(-c3ccc(OC(F)(F)F)cc3)n2)cc1` (stereo not shown) [F31, (Z)-1-(3-(2-ethyl-6-methylphenyl)-4-oxothiazolidin-2-ylidene)-3-(2-(4-(1-(4-(trifluoromethoxy)phenyl)-1H-1,2,4-triazol-3-yl)phenyl)cyclopropyl)urea], the “BAW rating (percent mortality class)” value in data set [1] is recorded as “A (50-100)”. Also, in data set [2], the “CL rating (percent mortality class)” value is recorded as “A (50-100)”.
In the case of `CCCc1ccc(C)cc1NC(=S)NC(=O)NCCCCc1ccc(-c2ncn(-c3ccc(OC(F)(F)F)cc3)n2)cc1` [PC151, 1-[(5-methyl-2-propyl-phenyl)carbamothioyl]-3-[4-[4-[1-[4-(trifluoromethoxy)phenyl]-1,2,4-triazol-3-yl]phenyl]butyl]urea], the pest or weed control at 50 µg/cm2 in data set [1] and in data set [2] was 50 to 100% each time.
On to `CCc1cccc(C)c1N1C(=O)CS/C1=N\C(=O)NCCCc1ccc(-c2ncn(-c3ccc(OC(F)(F)F)cc3)n2)cc1` [P101, (Z)-1-(3-(2-ethyl-6-methylphenyl)-4-oxothiazolidin-2-ylidene)-3-(3-(4-(1-(4-(trifluoromethoxy)phenyl)-1H-1,2,4-triazol-3-yl)phenyl)propyl)urea], for which the results for the pest or weed control at 50 µg/cm2 in data set [1] and in data set [2] were 0 to 50% and 50 to 100%, respectively.
With `CC(C)c1ccccc1N1C(=O)CS/C1=N\C(=O)NCCc1ccc(-c2ncn(-c3ccc(OC(F)(F)F)cc3)n2)cc1` [F1, (Z)-1-(3-(2-isopropylphenyl)-4-oxothiazolidin-2-ylidene)-3-(4-(1-(4-(trifluoromethoxy)phenyl)-1H-1,2,4-triazol-3-yl)phenethyl)urea], the “BAW rating (percent mortality class)” value in data set [1] is listed as “A (50-100)”. The “CL rating (percent mortality class)” value in data set [2] was “A (50-100)”.
Take `Cc1ccccc1N1C(=O)CS/C1=N\C(=O)NCCCc1cccc(-c2ncn(-c3ccc(OC(F)(F)F)cc3)n2)c1` [P118, (Z)-1-(4-oxo-3-(o-tolyl)thiazolidin-2-ylidene)-3-(3-(3-(1-(4-(trifluoromethoxy)phenyl)-1H-1,2,4-triazol-3-yl)phenyl)propyl)urea]: the pest or weed control at 50 µg/cm2 in data set [1] and in data set [2] was 50 to 100% in each case.
As for `C/C(=C\NC(=O)/N=C1\SCC(=O)N1c1ccccc1C(C)C)c1ccc(-c2ncn(-c3ccc(OC(F)(F)F)cc3)n2)cc1` [F13], in data set [1], the “BAW rating (percent mortality class)” value is “A (50-100)”. For the same compound, the “CL rating (percent mortality class)” value in data set [2] is “A (50-100)”.
Regarding `CCc1cccc(C)c1N1C(=O)CS/C1=N\C(=O)NCCc1cccc(-c2ncn(-c3ccc(OC(F)(F)F)cc3)n2)c1` [P83, (Z)-1-(3-(2-ethyl-6-methylphenyl)-4-oxothiazolidin-2-ylidene)-3-(3-(1-(4-(trifluoromethoxy)phenyl)-1H-1,2,4-triazol-3-yl)phenethyl)urea], the pest or weed control at 50 µg/cm2 in data set [1] and in data set [2] was 50 to 100% in each case.
In the case of `CC(C)c1ccccc1N1C(=O)CS/C1=N\C(=O)NCc1ccc(-c2ncn(-c3ccc(OC(F)(F)F)cc3)n2)cc1` [F17, (Z)-1-(3-(2-isopropylphenyl)-4-oxothiazolidin-2-ylidene)-3-(4-(1-(4-(trifluoromethoxy)phenyl)-1H-1,2,4-triazol-3-yl)benzyl)urea], in data set [1], the “BAW rating (percent mortality class)” value is “A (50-100)”. The “CL rating (percent mortality class)” value in data set [2] was “A (50-100)”.
As for `CCc1ccccc1N1C(=O)CS/C1=N\C(=O)NCCCCc1ccc(-c2ncn(-c3ccc(OC(F)(F)F)cc3)n2)cc1` [P145, (Z)-1-(3-(2-ethylphenyl)-4-oxothiazolidin-2-ylidene)-3-(4-(4-(1-(4-(trifluoromethoxy)phenyl)-1H-1,2,4-triazol-3-yl)phenyl)butyl)urea], the pest or weed control at 50 µg/cm2 in data set [1] and in data set [2] was 50 to 100% in each case.
